According to patent US20040019060A1, “Sigma receptor ligands and their medical uses” (priority 2000, published 2004):
Read-outs that look alike come from different tables or passages of the source.

Key:
[1] = biological target: sigma-1 sites (Homo sapiens, UniProt Q99720); settings: cited from earlier work; for affinity for sigma-1 versus sigma-2 sites / selectivity for sigma sites compared to other receptors: Matsumoto et al 1995; for selectivity for sigma sites compared to other receptors: vs opiate, phencyclidine, muscarinic, dopamine, alpha-1-, alpha-2-, beta-adrenoceptor, 5HT-1, 5-HT-2
Sequence of sigma-1 sites (Q99720 whole entry): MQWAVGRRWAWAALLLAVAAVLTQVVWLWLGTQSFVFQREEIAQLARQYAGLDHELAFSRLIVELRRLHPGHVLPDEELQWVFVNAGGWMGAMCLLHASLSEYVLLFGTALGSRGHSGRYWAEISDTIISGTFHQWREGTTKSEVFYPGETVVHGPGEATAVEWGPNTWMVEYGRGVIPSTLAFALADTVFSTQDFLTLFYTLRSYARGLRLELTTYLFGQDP

[2] = system: endothelial cells; test: Endothelial cell proliferation assay (cell phosphatase activity); assay type: cell-based, human; settings: for IC50: concentration of drug required to inhibit survival and/or proliferation by 50%, read-out: Antagonists: IC50; for Rescue from Rimcazole inhibition of proliferation: 4 μM agonist added together with 4 μM Rimcazole; for Stimulatory activity on cell proliferation: agonist ligands alone; for Agonists: stimulation: increase in cell number relative to controls on day 4
Description: HUVECS (human umbilical vein endothelial cells) obtained from TCS Biologicals were grown in TCS Biologicals Large Vessel Endothelial Cell Basal Medium (ZHM-2951) with supplement (ZHS-8945). This contains heparin, hydrocortisone, human EGF, human bFGF (concentrations not disclosed by the Company) with added 2% FCS, pH 7.4.
HMEC-1 (immortalised human microvascular endothelial cells) obtained from Dr Colin Porter, Chester Beatty Laboratories were grown in TCS Biologicals Microvascular Endothelial Cell Basal Medium (ZHM-2946) with supplement (ZHS-8947). This contains heparin, hydrocortisone, human EGF, human bFGF, dibutyryl cyclic AMP (concentrations not disclosed by the Company) with added 5% FCS, pH 7.4.
HDMECS (human dermal microvascular endothelial cells) obtained from TCS Biologicals were grown in TCS Biologicals Microvascular Endothelial Cell Basal Medium (ZHM-2946) with supplement (ZHS-8947). This contains heparin, hydrocortisone, human EGF, human bFGF, dibutyryl cyclic AMP (concentrations not disclosed by the Company) with added 5% FCS, pH 7.4.
The cells were seeded at 2×10^4 ml in 96 well microtitre plates on day 0, and sigma ligands were added in fresh medium on day 1. […] PCS at the concentrations indicated was present throughout the assay. Each concentration of drug was assayed in triplicate, and the vehicle concentration was kept constant.
Viable cells present at the end of the assay were estimated by determining phosphatase activity as follows: 100Xl of paranitrophenylphosphate (Sigma) at 3 mg/ml in phosphate buffer pH 5.5 containing 0.1% Triton X100 was added to wells and incubated for 2hr at 37° C. The reaction was stopped with 1N NaOH. Released paranitrophenol, indicative of attached cell number, was measured by reading the absorbance at 405 nm in a Titertek multiscan. […] The 100% value is the mean absorbance of control wells treated with vehicle alone; the 0% value is that of wells containing medium only.

[3] = system: Human endothelial cells co-cultured with human "feeder" fibroblasts; test: In vitro angiogenesis assay (pseudocapillary formation, anti-CD31 staining); assay type: cell-based
Description: Human endothelial cells co-cultured with human “feeder” fibroblasts on a fibrin matrix in 24 well plates were incubated with ligands at different concentrations. The ligands were added on days 0, 4, 7 and 9 and the experiment terminated on day 11. On each plate, 2 wells served as untreated controls, and 2 received suramin at […] as a standard angiogenesis inhibitor. Each concentration of ligand was assayed in triplicate. On day 11, the wells were washed, and the endothelial cells fixed and stained with anti-CD31 (PECAM-1) antibody and visualised with alkaline phosphatase conjugated second antibody. The cultures were scanned for image analysis and quantitation using a DataCell image analysis system and ImagePro software. Angiogenesis was expressed as the area and/or perimeter of “pseudocapillaries” formed in the gel by the endothelial cells.

[4] = system: Human adult dermal microvascular endothelial cells; test: MTS cell viability/proliferation assay, microvascular endothelial cells
[5] = Pharmacokinetics in mice (LCMS of plasma, liver, spleen); assay type: in vivo, Balb/C mice; settings: not shown
Description: Prior to undertaking any in vivo experiments with Rimcazole to study effects on tumour growth and angiogenesis, it was necessary to determine its pharmacokinetics in order that doses in the active range could be administered. Rimcazole (dissolved in water) was administered at 40 mg/kg i.p to Balb/C mice. Heparinised blood samples were taken at 5, 15 and 30 minutes, 1,2,4,6, and 24 hours and plasma separated. Tissue samples were also taken at some time points for analysis. Rimcazole samples were initially analysed by LCMS.
Column: Supelco 50×4.6 mm ABZ+ with 5 μ packing.
Mobile phase: A=HPLC grade methanol, B=0.1% formic acid in water.
Full scan mode: mass range analysed 50 to 850 amu.
MSMS mode: filtered ions were 322 (Rimcazole), 338 (Rimcazole+oxygen), and 514 (glucuronide of 338 metabolite).

[6] = system: Human mammary carcinoma (MDA MB 468) cells; test: MTS cell viability/proliferation assay, mammary carcinoma cells; assay type: cell-based; settings: 10 micromolar, low passage cells, FIG. 9
Description: Human mammary carcinoma (MDA MB 468) cells were obtained from TCC, Manassas, Va., USA; catalogue number HTB-132; cells were grown in accordance with the manufacturer's instructions.
(§1) Cell density was checked microscopically at time zero.

[7] = system: Human mammary epithelial cells; test: MTS cell viability/proliferation assay, mammary epithelial cells; assay type: cell-based; settings: 10 micromolar, up to 48 hours, FIG. 9
Description: (§2) (Tissue in all cases was from healthy donors). […] Primary cell types included:
Human mammary epithelial cells (catalogue number CC-2551; stain positive for cytokeratins 14, 18 and 19).
as §1

[8] = system: sponge angiogenesis; test: Rat sponge angiogenesis model (125I albumin vascular volume); assay type: in vivo, CBH/cbi rats
Description: In order to study neoangiogenesis in the absence of tumours, sterile polyether sponges were implanted into animals. This technique, developed in Cambridge, has been widely used to study angiogenesis. We have employed a triple radiotracer technique to study different aspects of the angiogenic process.
CBH/cbi rats were implanted s.c. with sterile 13 mm diameter sponges as above. They were treated i.p. with Rimcazole (30 mg/kg/day) for 14 days from day 0. Five minutes before termination, they were injected with ^125I labelled rat albumin (a macromolecule which, in the short term remains intravascular). The amount of radioiodine in the sponges is an index of vascular volume.

[9] = system: human adult dermal fibroblasts; test: MTS cell viability/proliferation assay, dermal fibroblasts; assay type: cell-based
Description: as §2, §1

CN1CCN(CCc2ccc(Cl)c(Cl)c2)CC1 [BD1063, 1(−)[2-(3,4-dichlorophenyl)ethyl]-4-methylpiperazine]
affinity for sigma-1 versus sigma-2 sites [1]: preferential affinities for sigma-1 compared to sigma-2
selectivity for sigma sites compared to other receptors [1]: marked selectivity
IC50 ([2]; Homo sapiens, Endothelial cell): 71 µM

CC(C)=CCN1CCC2(C)c3cc(O)ccc3CC1C2C (single isomer, unassigned; (+)) [(+)pentazocine, (+)-pentazocine]
Rescue of in vitro angiogenesis inhibition by 4 μM Rimcazole ([3]; equimolar concentration co-incubated, FIG. 5c): can be prevented
Rescue from Rimcazole inhibition of proliferation ([2]; FIG. 3): slight increase in survival
Stimulatory activity on cell proliferation [2]: moderate stimulatory activity
Agonists: stimulation ([2]; at 4 μM): 120% at 4 μM
Prevention of cytotoxic effect of IPAG and rimcazole ([4]; 10 micromolar co-administered with 10 micromolar IPAG or rimcazole, FIG. 11): completely prevented
Cell proliferation rate on co-administration with rimcazole and IPAG ([4]; co-administration, FIG. 11): increased cell proliferation rates above control values

CN(C)CCN(C)CCc1ccc(Cl)c(Cl)c1 [BD1047, N(−)[2-(3,4-dichlorophenyl)ethyl]-N-methyl-2-(dimethylamino)ethylamine]
affinity for sigma-1 versus sigma-2 sites [1]: preferential affinities for sigma-1 compared to sigma-2
selectivity for sigma sites compared to other receptors [1]: marked selectivity
IC50 [2]: 74 µM

N=C(Nc1ccc(I)cc1)NC1C2CC3CC(C2)CC1C3 (stereo not shown) [IPAG, 1-(4-iodophenyl)-3-(2-adamantyl)guanidine]
Pharmacokinetics compared with Rimcazole [5]: similarly favourable PK
Inhibition of pseudocapillary formation (in vitro angiogenesis) ([3]; FIG. 4, 5a, 5b angiogenesis area): very effective in inhibiting
Ki ([1]; Whittemore et al 1997, read-out: inhibition constant for sigma-1 sites): ~0.0028 µM
Cell killing (MTS viability) [6]: no surviving cells remained after 24 hours
Survival and proliferation (MTS) [7]: continued to proliferate vigorously
IC50 ([2]; Homo sapiens, Endothelial cell): 11 µM
Inhibition of endothelial cell proliferation compared with Rimcazole ([2]; not shown): as effective as Rimcazole
Vascular volume of normal organs (liver and kidney) ([8]; 30 mg/kg/day for 14 days): unaffected
Neoangiogenesis in sponges (vascular volume, radiolabelled albumin) ([8]; 30 mg/kg/day for 14 days after implantation, FIG. 7b): reduced
cytotoxicity at 10 µM ([4]; Homo sapiens, Endothelial cell, read-out: Reduction in viable cell numbers compared to baseline values): 60 to 80%
Survival and proliferation (MTS) ([9]; 10 micromolar, up to 48 hours, FIG. 9): continued to proliferate vigorously
Tolerance of fibroblasts over a range of concentrations (MTS) ([9]; 100 micromolar to 1 nanomolar, FIG. 10): slightly less tolerant of high concentrations

C=CCN1CCC2(C)c3cc(O)ccc3CC1C2C (single isomer, unassigned; (+)) [(+)-SKF-10047, (+)-N-allyl normetazocine]
Rescue from Rimcazole inhibition of proliferation ([2]; FIG. 3): slight increase in survival
Rescue from Rimcazole inhibition: numbers of endothelial cells ([2]; 10 μM agonist added together with 4 μM Rimcazole, FIG. 3): the same as in control untreated cultures
Stimulatory activity on cell proliferation [2]: moderate stimulatory activity
Agonists: stimulation ([2]; at 100 μM): 110% at 100 μM
